Measured values reported in patent US4785001A, “Ergoline esters” (Farmitalia Carlo Erba S.p.A., priority 1986, dated 1988).

What was measured:
[1] = orientative acute toxicity (LD50), p.o. mice; conditions: mouse, in vivo, po
[2] = electroencephalographic effects (EEG) in the rat; type: in vivo; conditions: 20 mg/Kg p.o.
Experimental: Moreover, the compound prepared in Example 1 was tested at the dose of 20 mg/Kg p.o. in the rat and the electroencephalographic effects (EEG) were observed. […] See Buonamici, M., Young, G. A. and Khazon (1982), Neuropharmacology, 21 : 825-829.

## CO[C@]12C[C@@H](COC(=O)C3=CN(C)C=CC3)CN(C)[C@@H]1Cc1cn(C)c3cccc2c13 [Example 1, 10-Methoxy-,1,6-dimethyl-8β-(1-methyl-,1,4-dihydro-3-pyridyl-carbonyloxymethyl)-ergoline]
[1]
  LD50: > 800 mg/kg
[2]
  electroencephalographic effects (EEG): increased and long-lasting modifications
